For series [1], the system named is hippocampal dentate gyrus. The conditions noted are these: induced by high-frequency electrical stimulation of the afferent perforant pathway; cited from earlier work.
The subject of a further series is c-Fos immunoreactivity. The following applies: in vivo; cited from earlier work.
The next series deals with T1, GLYT-1 (Homo sapiens, UniProt P48067).
T1 sequence (P48067 1-706): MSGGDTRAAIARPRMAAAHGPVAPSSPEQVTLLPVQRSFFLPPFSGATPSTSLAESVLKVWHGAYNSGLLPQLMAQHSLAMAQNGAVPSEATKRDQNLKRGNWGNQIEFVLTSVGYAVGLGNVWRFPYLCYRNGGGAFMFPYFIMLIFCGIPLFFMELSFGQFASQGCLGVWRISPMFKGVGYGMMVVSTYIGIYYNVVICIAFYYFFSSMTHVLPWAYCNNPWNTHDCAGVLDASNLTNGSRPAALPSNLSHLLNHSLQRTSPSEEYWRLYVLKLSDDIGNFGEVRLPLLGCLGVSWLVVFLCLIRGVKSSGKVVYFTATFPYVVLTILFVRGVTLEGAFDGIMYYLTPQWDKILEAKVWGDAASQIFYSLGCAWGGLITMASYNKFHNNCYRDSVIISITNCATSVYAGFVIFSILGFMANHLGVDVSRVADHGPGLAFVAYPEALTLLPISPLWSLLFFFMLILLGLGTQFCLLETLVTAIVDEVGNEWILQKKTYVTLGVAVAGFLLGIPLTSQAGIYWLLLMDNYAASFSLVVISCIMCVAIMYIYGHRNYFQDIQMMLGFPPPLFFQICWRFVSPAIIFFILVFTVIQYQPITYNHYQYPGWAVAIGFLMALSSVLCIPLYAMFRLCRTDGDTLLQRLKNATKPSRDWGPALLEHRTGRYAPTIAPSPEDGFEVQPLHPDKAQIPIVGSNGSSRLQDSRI
The conditions noted are these: in vitro; cited from earlier work.

The next series deals with NMDA receptor. The conditions noted are these: cited from earlier work.
Another series concerns DBA/2J mice. The conditions noted are these: strain with low basal pre-pulse inhibition; cited from earlier work.
Series [2] in a line: Stability of the solid form, conversion between polymorphs. It counts as physicochemical. The conditions noted are these: for stability of the polymorphic form: hydrochloride.
Series [3] in a line: Thermal decomposition on drying by heating. The conditions noted are these: drying through heating to release residual solvents. It counts as physicochemical.

Some results are limits rather than exact numbers.

Turning to `CN(CCC(Oc1ccc(-c2ccccc2)cc1)c1ccc(F)cc1)CC(=O)O` (racemic) [(+/−)-NFPS, N-[3-(4′-fluorophenyl)-3-(4′-phenylphenoxy)propyl]sarcosine], in series [1], the long-term potentiation entry is reported as “significantly enhanced”.

For the molecule `CN(CCC(Oc1ccc(-c2ccccc2)cc1)c1ccc(F)cc1)CC(=O)O` (single isomer, unassigned; (+)) [(+)-NFPS, (+)N-[3-(4′-fluorophenyl)-3-(4′-phenylphenoxy)-propyl]sarcosine], the “pattern of c-Fos immunoreactivity” value in the series with c-Fos immunoreactivity is “comparable with the atypical anti-psychotic clozapine”. Moreover, at GLYT-1, the “activity relative to the racemic compound” value was “greater than 10 fold”. The “NMDA-induced [3H]GABA release” value in the series on NMDA receptor is recorded as “significantly stimulated”. Besides, the “pre-pulse inhibition of the acoustic startle response” value with DBA/2J mice is recorded as “enhanced”.

Consider `Cl.O=C(N[C@@H](c1ccccc1)[C@@H]1CC2CCN1CC2)c1c(Cl)ccc(C(F)(F)F)c1Cl` [Form A, N—[(S)-2(S)-1-azabicyclo[2.2.2]oct-2-yl(phenyl)methyl]-2,6-dichloro-3-(trifluoromethyl)benzamide hydrochloride], for which the “stability of the polymorphic form” value in series [2] (listed as polymorph A) is reported as “highly stable”. Besides, the “temperature above which thermal decomposition of the compound occurs” value in series [3] is “above 220 °C”.

The term solubility denotes how much of the substance goes into solution per volume. `Cl.O=C(N[C@@H](c1ccccc1)[C@@H]1CC2CCN1CC2)c1c(Cl)ccc(C(F)(F)F)c1Cl` [Form B, N—[(S)-2(S)-1-azabicyclo[2.2.2]oct-2-yl(phenyl)methyl]-2,6-dichloro-3-(trifluoromethyl)benzamide hydrochloride]: in the series “Solubility in water”, the solubility was over 200 mg/mL. Also, the “solubility in water” value in the series “Solubility in water” (45° C.) is “highly soluble in water”. The “conversion to polymorph A” value in series [2] (aqueous system) was “readily converts to the desired polymorph A”. Also, the “stability of the polymorphic form” value in series [2] is recorded as “lower stability than Form A”.

The values are drawn from patent publication US20120022099A1, “NOVEL POLYMORPHIC FORMS OF AN AZABICYCLO-TRIFLUOROMETHYL BENZAMIDE DERIVATIVE” (SANOFI, priority 2008, published 2012).
